Measured values published in PMC3400326 (Pharmacogenomics and personalized medicine, 2011).

How the values were obtained:
[1] = target: SULT1A1 (Homo sapiens, UniProt P50225); assay: intrinsic fluorescence titration; format: binding
[2] = target: T1, SULT1E1 (Homo sapiens, UniProt P49888); assay: intrinsic fluorescence titration; format: binding
T1 sequence (P49888 1-294): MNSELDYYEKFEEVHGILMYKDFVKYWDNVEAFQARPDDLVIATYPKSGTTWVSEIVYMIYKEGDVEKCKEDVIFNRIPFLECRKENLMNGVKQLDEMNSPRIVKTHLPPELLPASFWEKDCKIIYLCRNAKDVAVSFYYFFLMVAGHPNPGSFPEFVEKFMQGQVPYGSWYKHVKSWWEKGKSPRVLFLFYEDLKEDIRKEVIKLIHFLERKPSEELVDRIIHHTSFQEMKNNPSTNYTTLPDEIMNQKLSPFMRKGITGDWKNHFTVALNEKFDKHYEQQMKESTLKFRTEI

Chain of SULT1A1 (P50225 whole entry): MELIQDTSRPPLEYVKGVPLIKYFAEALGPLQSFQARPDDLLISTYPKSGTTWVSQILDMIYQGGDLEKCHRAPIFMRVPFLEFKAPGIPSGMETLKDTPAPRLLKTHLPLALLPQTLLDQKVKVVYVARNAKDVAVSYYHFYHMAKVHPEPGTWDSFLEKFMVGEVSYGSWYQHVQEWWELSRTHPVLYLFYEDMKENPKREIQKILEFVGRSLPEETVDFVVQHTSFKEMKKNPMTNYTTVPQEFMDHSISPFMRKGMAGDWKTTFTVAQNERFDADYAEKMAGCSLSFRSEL

Kd [1]: 2300 ± 400 nM
Kd [2]: 200 ± 20 nM
Structure (SMILES): C[C@]12CC[C@@H]3c4ccc(O)cc4C[C@@H](CCCCCCCCC[S+]([O-])CCCC(F)(F)C(F)(F)F)[C@H]3[C@@H]1CC[C@@H]2O (some centres unmarked) [fulvestrant]
